Where two headings read alike, the source gives them in different places. Some results are limits rather than exact numbers.

The values below come from PMC5391968, “Comparison of cell-based assays for the identification and evaluation of competitive CXCR4 inhibitors” (PLoS ONE, 2017).

Series [1] addresses T1, CXCR4 (Homo sapiens, UniProt P61073). The series can be described thus: CXCR4 internalization assay in SUP-T1 cells. The note with it: for induction of CXCR4 internalization (agonistic effect): in absence of CXCL12, data not shown. Details: CXCR4 receptors endogenously expressed on SUP-T1 cells; endogenous in cells; host or cells: SUP-T1 (ATCC). Type of series: cell-based. How it is done:
T-lymphoblastic SUP-T1 cells were washed twice in DPBS containing 2% FBS. Afterwards, cells were first incubated with the PE-labeled rat anti-human CXCR4 mAb (clone 1D9; 2 μg/ml in DPBS/2% FBS; BD Pharmingen) on ice for 45 minutes. […] SUP-T1 cells were subsequently washed once with ice cold DPBS and twice with ice cold assay buffer (see above) before being treated with test compound on ice for 15 minutes. […] Samples were immediately analyzed with the FACSCalibur flow cytometer (Becton Dickinson) whereby the measured fluorescence corresponds to the amount of […] CXCR4 receptors. Data were further analyzed with the FlowJo software.

Series [2] relates to CXCR4-positive Jurkat cells. The series can be described thus: cells. Type of series: cell-based, human. The note with it: read-out: IC50 Chemotaxis. On the procedure:
Jurkat cells were washed twice in assay buffer (see above), dispensed into a 96-well plate (5x10^5 cells per well) containing serial dilutions of compounds (in assay buffer) and incubated at RT in the dark for 10 minutes. […] Suspensions of 1.87x10^4 cells were transferred to the chemotaxis insert plate. […] After removal of the insert plate, migrated cells were centrifuged and resuspended in DPBS containing flow cytometry cell counting beads ([…] Fluorescent Particles; Gentaur, London, UK). Both migrated cells and particles were counted by flow cytometry (FACSCanto II; Becton Dickinson). Each compound concentration was tested in triplicate. Data were analyzed using the FlowJo software and the total number of migrated cells was calculated, according to the counted and total number of beads present in the sample.

Series [3] deals with HIV-1 NL4-3 (X4). The series can be described thus: microbe, parasite or virus in culture. The series is classed as cell-based. The note with it: PHA-stimulated PBMCs, ten days post infection, p24 Ag ELISA, mean ± SEM, read-out: IC50 HIV-1 (X4) NL4-3 replication, PHA-stimulated PBMCs. On the procedure: PHA-stimulated PBMCs at 5x10^5 cells per sample, pre-incubated with test compounds dissolved in cell culture medium containing IL-2 (2 ng/ml; […] After three days, fresh culture medium with IL-2 was added. Ten days post infection cell supernatant was collected for HIV-1 p24 core antigen enzyme-linked immunosorbent assay (ELISA; Perkin Elmer, Boston, MA, USA) according to the manufacturer’s protocol. In the antiviral assays, each condition was tested in duplicate.
For orientation: In an ELISA, binding on a coated surface is turned into a signal by an enzyme label.

Series [4] deals with HIV-1 NL4-3 (X4). The series can be described thus: microbe, parasite or virus in culture. The series is classed as cell-based. The note with it: MT-4 cells, four days post infection, MTS, mean ± SEM, read-out: IC50 HIV-1 (X4) NL4-3 replication, MT-4 cells. On the procedure: The anti-HIV replication assays in MT-4 cells and PHA-stimulated PBMCs have been described previously. The HIV-1 T-tropic molecular clone NL4-3 (X4) was obtained from the National Institute of Allergy and Infectious Disease (NIAID) AIDS reagent program (Bethesda, MD, USA). Briefly, 5x10^4 MT-4 cells (in cell culture medium) were treated with different concentrations of compound at 37°C for 30 minutes. Afterwards, a 50% tissue culture infectious dose of the NL4-3 viral stock was added to the cell-compound mixtures. Four days post infection, the cytopathic effect was evaluated microscopically and cell viability was assessed with the MTS method, as described above.
In the antiviral assays, each condition was tested in duplicate.

The target of series [5] is T1, CXCR4. The series can be described thus: CXCL12^AF647 binding assay on Jurkat cells. The note with it: read-out: IC50 CXCL12-CXCR4 binding interaction. How it is done: In brief, Jurkat cells were washed twice in assay buffer [Hank’s Balanced Salt Solution (HBSS; Thermo Fisher Scientific), 20 mM HEPES buffer (Thermo Fisher Scientific), 0.2% bovine serum albumin (Sigma-Aldrich), pH 7.4]. […] Afterwards, cells were washed twice in assay buffer and subsequently fixed in 1% paraformaldehyde in Dulbecco’s phosphate buffered saline (DPBS). Samples were analyzed with the FACSArray flow cytometer (Becton Dickinson, NJ, USA). Data were further analyzed with the FlowJo Software (Ashland, Oregon, USA).

In series [6] the target is T1, CXCR4. In words: Labeled CXCR4 monoclonal antibody binding (clones 12G5, 1D9), flow cytometry. More on the design: CXCR4 receptors endogenously expressed on SUP-T1 cells; endogenous in cells; host or cells: SUP-T1 (ATCC). As to conditions: 12G5 clone and 1D9 clone, data not shown. How it is done:
A feature of CXCR4, shared with many other GPCRs, is its internalization following agonist binding, also known as receptor endocytosis. To evaluate the potential inhibitory effect of the compounds on CXCR4 endocytosis, CXCR4 receptors endogenously expressed on SUP-T1 cells were first stained with a PE-labeled rat anti-human CXCR4 mAb targeting the receptor’s N-terminus (clone 1D9) and subsequently incubated with compound. […] In addition, when SUP-T1 cells were incubated with compound for thirty minutes at 4°C, and afterwards stained with the CXCR4 mAb (1D9) for thirty minutes at 4°C, no displacement (i.e. decrease in mAb binding) of the CXCR4 mAb was observed by flow cytometry (data not shown). […] In consequence, reduced cellular staining in our assay reflects the inhibitory effects of compounds on receptor internalization and not simply displacement of the CXCR4 mAb.
For orientation: In flow cytometry, cells or beads pass a laser one at a time.

In series [7] the target is T1, CXCR4. The series can be described thus: Calcium mobilization assay (FLIPR Tetra) in U87.CD4.CXCR4 cells. The series is classed as cell-based. As to conditions: read-out: IC50 Calcium signaling (CXCL12-induced). How it is done: U87.CD4.CXCR4 cells were seeded at 2x10^4 cells per well in gelatin-coated black-walled 96-well plates [0.1% gelatin in DPBS, incubated at RT for two hours and washed once with DPBS] and incubated at 37°C and 5% CO2 overnight. […] Fluo-2 AM loaded cells were washed with assay buffer before being incubated in the FLIPR Tetra system at 37°C for five minutes. At the start of the kinetic measurement, compounds were added to the cell plate by the internal robotic system followed by an incubation period of 10 minutes during which changes in the intracellular calcium level were continuously measured by the FLIPR Tetra. […] Each condition was measured in triplicate and repeated several times as further indicated (see Results).
On the technique in general: Calcium assays in cells follow changes in intracellular calcium, usually with a dye or a luminescent sensor.

Series [8] has as its target T1, CXCR4. The series can be described thus: CXCL12/CXCR4 interaction on SUP-T1 cells. The note with it: high concentration, data not shown. More on the design: CXCR4 receptors endogenously expressed on SUP-T1 cells; endogenous in cells; host or cells: SUP-T1 (ATCC). The series is classed as binding.
Series [9] in a line: in vitro. The series is classed as cell-based. As to conditions: human. How it is done: (§1) Jurkat cells (3x10^5 cells per well in culture medium) were incubated with serial dilutions of compound at room temperature (RT) for two hours. Cytotoxicity of the compounds was also evaluated at 37°C over a longer period of time in MT-4 cells (5x10^4 cells per well in culture medium, four day incubation) and PHA-stimulated PBMCs (5x10^5 cells per well in culture medium, ten day incubation) because these cell types were used in anti-HIV activity assays which last up to ten days (see below). Each condition was tested in duplicate. Cytotoxicity was evaluated microscopically and, in addition, cell viability was assessed using the colorimetric CellTiter 96 AQueous One Solution Cell Proliferation Assay (Promega, Fitchburg, WI, USA), which is based on the reduction of the tetrazolium salt MTS [3-(4,5-dimethylthiazol-2-yl)-5-(3-carboxymethoxyphenyl)-2-(4-sulfophenyl)-2H-tetrazolium] to formazan by metabolically active cells. Absorbance at 490 nm was measured with the VersaMax ELISA Microplate Reader (Molecular Devices, Sunnyvale, CA, USA). The cytotoxic concentration 50 (CC50) of each compound was calculated based on the absorbance of negative (i.e. cells without compound) and positive (i.e. only culture medium) control samples.

A short description of series [10]: in vitro. The series is classed as cell-based. The note with it: human. How it is done: Freshly isolated peripheral blood mononuclear cells (PBMCs) were isolated out of buffy coats from healthy donors (Red Cross, Belgium). They were cultured in RPMI medium with 10% FBS, 2 mM L-glutamine and stimulated with 2 μg/ml phytohemagglutinin (PHA; Sigma-Aldrich) for three days before use in the HIV replication assays (see below).
as §1, with “The cytotoxic concentration 50 (CC50) of each compound was calculated based on the absorbance of negative (i.e. cells without compound) and positive (i.e. only culture medium) control samples.” left out
This is another data set of the same source.

T1 sequence (P61073 whole entry): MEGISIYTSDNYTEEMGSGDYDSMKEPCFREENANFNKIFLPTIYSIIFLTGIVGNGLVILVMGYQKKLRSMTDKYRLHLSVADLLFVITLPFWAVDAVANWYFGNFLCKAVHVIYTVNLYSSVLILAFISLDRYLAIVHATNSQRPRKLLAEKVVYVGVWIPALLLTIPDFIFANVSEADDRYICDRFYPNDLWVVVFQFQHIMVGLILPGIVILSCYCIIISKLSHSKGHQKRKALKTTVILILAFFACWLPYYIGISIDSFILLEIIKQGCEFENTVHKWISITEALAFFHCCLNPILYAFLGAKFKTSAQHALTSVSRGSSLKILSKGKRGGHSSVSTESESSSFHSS

In general, IC50 refers to the midpoint of a concentration-inhibition curve. Consider `c1ccc(NCc2ccc(CNc3ccccn3)cc2)nc1` [WZ811], for which the “induction of CXCR4 internalization (agonistic effect)” value in series [1] (100 μM) was “absence of an agonistic effect”. The IC50 was greater than 100 µM in series [1] (SUP-T1 cells, 6.25 nM CXCL12, 37°C 30 minutes, mean ± SEM); greater than 100 µM in series [2] (Jurkat cells, 6.25 nM CXCL12, two hours, mean ± SEM); 38.2 µM in series [3]; greater than 100 µM in series [4]; greater than 100 µM in [5] (Jurkat cells, 2.9 nM CXCL12^AF647, mean ± SEM); greater than 100 µM in series [7] (U87.CD4.CXCR4 cells, 6.25 nM CXCL12, mean ± SEM). Further, in [6], the “reduction of labeled CXCR4 mAb binding” value is reported as “unable to reduce mAb binding”. For the same compound, the “inhibition of the interaction between CXCL12 and CXCR4” value in series [8] was “unable, even at high concentration, to inhibit the interaction between CXCL12 and CXCR4”.
A word on the CC50: it is the concentration that lowers cell viability or growth by half. A low value points to greater toxicity to the cells. `CC(C)=CCC[C@]1(C)C=Cc2c(O)c3c(c(CC=C(C)C)c2O1)O[C@]12C(=C[C@@H]4C[C@H]1C(C)(C)O[C@@]2(C/C=C(/C)C(=O)O)C4=O)C3=O` [gambogic acid]: the IC50 is greater than 10 µM in series [1]; 1.89 µM in series [2] (Homo sapiens, Jurkat, 2 h); greater than 0.225 µM in [3] (Human immunodeficiency virus 1, NL43, PBMC, 240 h); greater than 0.376 µM in series [4] (Human immunodeficiency virus 1, NL43, MT4, 96 h); 7.06 µM in series [5]; 4.37 µM in series [7]. Further, the “induction of CXCR4 internalization (agonistic effect)” value in series [1] (10 μM) is listed as “absence of an agonistic effect”. The midpoint of cytotoxicity in series [9], the CC50 at 2 h, lay at 10 µM. The compound also registered a CC50 at 4 days in series [9] of roughly 0.3 µM. The cytotoxic concentration (CC50) at 10 days in series [10] is roughly 0.3 µM.
